Values after ≈ are worked out from the molar mass of the structure shown. Active and inactive are the calls of the source. The calls are words filed in the database; no cut-off is given here.
Tests used:
Candida albicans [1] = test: Antifungal activity against Candida albicans after 72 to 96 hrs by twofold serial dilution method; format: functional
Staphylococcus aureus = test: Antibacterial activity against Staphylococcus aureus after 24 hrs by twofold serial dilution method; format: functional
Aspergillus flavus [2] = test: Antifungal activity against Aspergillus flavus after 72 to 96 hrs by twofold serial dilution method; format: functional
Escherichia coli [3] = test: Antibacterial activity against Escherichia coli after 24 hrs by twofold serial dilution method; format: functional
Pseudomonas aeruginosa = test: Antibacterial activity against Pseudomonas aeruginosa after 24 hrs by twofold serial dilution method; format: functional
Rhizopus = test: Antifungal activity against Rhizopus sp. after 72 to 96 hrs by twofold serial dilution method; format: functional
Aspergillus niger = test: Antifungal activity against Aspergillus niger after 72 to 96 hrs by twofold serial dilution method; format: functional
Salmonella typhi [4] = test: Antibacterial activity against Salmonella typhi after 24 hrs by twofold serial dilution method; format: functional, Salmonella enterica subsp. enterica serovar Typhi; conditions: Salmonella enterica
Salmonella typhi [5] = test: Antibacterial activity against Salmonella typhi at 200 ug/ml after 24 hrs by twofold serial dilution method; format: functional, organism-based; conditions: Salmonella enterica subsp. enterica serovar Typhi
Candida albicans [6] = test: Antifungal activity against Candida albicans at 200 ug/ml after 72 to 96 hrs by twofold serial dilution method; format: functional, organism-based
Escherichia coli [7] = test: Antibacterial activity against Escherichia coli at 200 ug/ml after 24 hrs by twofold serial dilution method; format: functional, organism-based
Aspergillus flavus [8] = test: Antifungal activity against Aspergillus flavus at 200 ug/ml after 72 to 96 hrs by twofold serial dilution method; format: functional, organism-based

`CC1C(=O)C(C)C(c2ccc(Cl)cc2)N(C(=O)CN2CCOCC2)C1c1ccc(Cl)cc1` (stereo not drawn) was tested, and the MIC (Candida albicans [1]) was 6.25 µg/mL (≈ 13.1 µM), the MIC (Staphylococcus aureus) was 25 µg/mL (≈ 52.6 µM) and the MIC (Aspergillus flavus [2]) was 6.25 µg/mL (≈ 13.1 µM). The MIC (Escherichia coli [3]) was 25 µg/mL (≈ 52.6 µM), the MIC (Pseudomonas aeruginosa) was 50 µg/mL (≈ 105 µM) and the MIC (Rhizopus) was 25 µg/mL (≈ 52.6 µM). It also gave an MIC (Aspergillus niger) of 25 µg/mL (≈ 52.6 µM) and an MIC (Salmonella typhi [4]) of 100 µg/mL (≈ 210 µM).
`Cc1ccc(C2C(C)C(=O)C(C)C(c3ccc(C)cc3)N2C(=O)CN2CCOCC2)cc1` (stereo not drawn) was tested, and the MIC (Candida albicans [1]) was 50 µg/mL (≈ 115 µM), the MIC (Staphylococcus aureus) was 50 µg/mL (≈ 115 µM) and the MIC (Aspergillus flavus [2]) was 25 µg/mL (≈ 57.5 µM). The MIC (Escherichia coli [3]) was 25 µg/mL (≈ 57.5 µM), the MIC (Pseudomonas aeruginosa) was 6.25 µg/mL (≈ 14.4 µM) and the MIC (Rhizopus) was 25 µg/mL (≈ 57.5 µM). It also gave an MIC (Aspergillus niger) of 50 µg/mL (≈ 115 µM) and an MIC (Salmonella typhi [4]) of 6.25 µg/mL (≈ 14.4 µM).
Molecule `CC1C(=O)C(C)C(c2ccccc2)N(C(=O)CN2CCOCC2)C1c1ccccc1` (stereo not drawn) has an MIC (Candida albicans [1]) of 50 µg/mL (≈ 123 µM), an MIC (Staphylococcus aureus) of 50 µg/mL (≈ 123 µM) and an MIC (Aspergillus flavus [2]) of 50 µg/mL (≈ 123 µM). For the same molecule, the MIC (Escherichia coli [3]) was 100 µg/mL (≈ 246 µM), the MIC (Pseudomonas aeruginosa) was 25 µg/mL (≈ 61.5 µM) and the MIC (Rhizopus) was 12.5 µg/mL (≈ 30.7 µM). The MIC (Aspergillus niger) was 25 µg/mL (≈ 61.5 µM) and the MIC (Salmonella typhi [4]) was 50 µg/mL (≈ 123 µM).
For `O=C(O)c1cn(C2CC2)c2cc(N3CCNCC3)c(F)cc2c1=O` [CIPROFLOXACIN], the MIC (Escherichia coli [3]) was 25 µg/mL (≈ 75.4 µM) and the MIC (Salmonella typhi [4]) was 50 µg/mL (≈ 151 µM).
Molecule `CCC1C(=O)CC(c2ccccc2)N(C(=O)CN2CCOCC2)C1c1ccccc1` (stereo not drawn) has an MIC (Candida albicans [1]) of 100 µg/mL (≈ 246 µM), an MIC (Staphylococcus aureus) of 50 µg/mL (≈ 123 µM) and an MIC (Aspergillus flavus [2]) of 100 µg/mL (≈ 246 µM). The MIC (Escherichia coli [3]) was 50 µg/mL (≈ 123 µM), the MIC (Pseudomonas aeruginosa) was 25 µg/mL (≈ 61.5 µM) and the MIC (Rhizopus) was 200 µg/mL (≈ 492 µM). It also gave an MIC (Aspergillus niger) of 100 µg/mL (≈ 246 µM) and an MIC (Salmonella typhi [4]) of 100 µg/mL (≈ 246 µM).
Work on `CC1C(=O)CC(c2ccccc2)N(C(=O)CN2CCOCC2)C1c1ccccc1` (stereo not drawn) yielded an MIC (Staphylococcus aureus) of 200 µg/mL (≈ 510 µM), an MIC (Aspergillus flavus [2]) of 50 µg/mL (≈ 127 µM) and an MIC (Escherichia coli [3]) of 100 µg/mL (≈ 255 µM). The MIC (Pseudomonas aeruginosa) was 50 µg/mL (≈ 127 µM), the MIC (Rhizopus) was 100 µg/mL (≈ 255 µM) and the Activity (Salmonella typhi [5]) was “inactive”. For the same molecule, the Activity (Candida albicans [6]) was “inactive” and the MIC (Aspergillus niger) was 50 µg/mL (≈ 127 µM).
In the case of `C[C@@H]1[C@H](O)[C@@H](C)/C=C/C=C/C=C/C=C/C=C/C=C/C=C/[C@H](O[C@@H]2O[C@H](C)[C@@H](O)[C@H](N)[C@@H]2O)C[C@@H]2O[C@](O)(C[C@@H](O)C[C@@H](O)[C@H](O)CC[C@@H](O)C[C@@H](O)CC(=O)O[C@H]1C)C[C@H](O)[C@H]2C(=O)O` [AMPHOTERICIN B], the MIC (Candida albicans [1]) was 25 µg/mL (≈ 27.1 µM), the MIC (Aspergillus flavus [2]) was 50 µg/mL (≈ 54.1 µM) and the MIC (Rhizopus) was 25 µg/mL (≈ 27.1 µM). The MIC (Aspergillus niger) was 50 µg/mL (≈ 54.1 µM).
Work on `COc1ccc(C2CC(=O)C(C)C(c3ccc(OC)cc3)N2C(=O)CN2CCOCC2)cc1` (stereo not drawn) yielded an MIC (Candida albicans [1]) of 25 µg/mL (≈ 55.2 µM), an MIC (Staphylococcus aureus) of 50 µg/mL (≈ 110 µM) and an MIC (Aspergillus flavus [2]) of 12.5 µg/mL (≈ 27.6 µM). For the same molecule, the MIC (Escherichia coli [3]) was 100 µg/mL (≈ 221 µM), the MIC (Pseudomonas aeruginosa) was 25 µg/mL (≈ 55.2 µM) and the MIC (Rhizopus) was 6.25 µg/mL (≈ 13.8 µM). It also gave an MIC (Aspergillus niger) of 50 µg/mL (≈ 110 µM) and an MIC (Salmonella typhi [4]) of 50 µg/mL (≈ 110 µM).
Work on `CC(C)C1C(=O)CC(c2ccccc2)N(C(=O)CN2CCOCC2)C1c1ccccc1` (stereo not drawn) yielded an MIC (Candida albicans [1]) of 50 µg/mL (≈ 119 µM), an MIC (Staphylococcus aureus) of 100 µg/mL (≈ 238 µM) and an MIC (Aspergillus flavus [2]) of 100 µg/mL (≈ 238 µM). The MIC (Escherichia coli [3]) was 100 µg/mL (≈ 238 µM), the MIC (Pseudomonas aeruginosa) was 50 µg/mL (≈ 119 µM) and the MIC (Rhizopus) was 25 µg/mL (≈ 59.4 µM). It also gave an MIC (Aspergillus niger) of 50 µg/mL (≈ 119 µM) and an MIC (Salmonella typhi [4]) of 200 µg/mL (≈ 476 µM).
Work on `COc1ccc(C2C(C)C(=O)C(C)C(c3ccc(OC)cc3)N2C(=O)CN2CCOCC2)cc1` (stereo not drawn) yielded an MIC (Candida albicans [1]) of 100 µg/mL (≈ 214 µM), an MIC (Staphylococcus aureus) of 6.25 µg/mL (≈ 13.4 µM) and an MIC (Aspergillus flavus [2]) of 100 µg/mL (≈ 214 µM). It also gave an MIC (Escherichia coli [3]) of 12.5 µg/mL (≈ 26.8 µM), an MIC (Pseudomonas aeruginosa) of 12.5 µg/mL (≈ 26.8 µM) and an MIC (Rhizopus) of 50 µg/mL (≈ 107 µM). It also gave an MIC (Aspergillus niger) of 50 µg/mL (≈ 107 µM) and an MIC (Salmonella typhi [4]) of 25 µg/mL (≈ 53.6 µM).
`O=C1CC(c2ccccc2)N(C(=O)CN2CCOCC2)C(c2ccccc2)C1` (stereo not drawn) gave an MIC (Staphylococcus aureus) of 200 µg/mL (≈ 528 µM), an MIC (Pseudomonas aeruginosa) of 100 µg/mL (≈ 264 µM) and an MIC (Rhizopus) of 100 µg/mL (≈ 264 µM). For the same molecule, the Activity (Escherichia coli [7]) was “inactive”, the Activity (Aspergillus flavus [8]) was “inactive” and the Activity (Candida albicans [6]) was “inactive”. It also gave an MIC (Aspergillus niger) of 200 µg/mL (≈ 528 µM) and an MIC (Salmonella typhi [4]) of 100 µg/mL (≈ 264 µM).

Reference: ChEMBL document CHEMBL1147164, “Synthesis, stereochemistry and antimicrobial evaluation of some N-morpholinoacetyl-2,6-diarylpiperidin-4-ones” (2007)
